Data from US6818663B2, “Diaminothiazoles” (Hoffmann-La Roches, priority 2002, dated 2004).

How the values were obtained:
[1] = system: HCT116, a colorectal carcinoma cell line; assay: Tetrazolium dye proliferation assay (MTT assay); assay type: cell-based; details: Homo sapiens, HCT-116, HCT116 cells, inhibition of cell proliferation
Method in brief: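 HCT116 cells in McCoy's 5A + 10% FCS, plated overnight, then dosed in duplicate with serial dilutions (final DMSO 0.3%) and incubated to growth-curve time points. MTT at 1 mg/ml for 2.5-3 h, formazan in ethanol, A570/650. IC50 by linear regression of log concentration vs % inhibition relative to blank and DMSO controls.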

human cyclin B-CDK1 = human cyclin B-CDK1 (Homo sapiens, UniProt P06493); assay: FlashPlate kinase assay, cyclin B-CDK1, Rb substrate; assay type: biochemical; details: recombinant cyclin B-CDK1, Rb phosphorylation, 1 μM ATP
Sequence of human cyclin B-CDK1 (P06493 whole entry, the tested form may be a part): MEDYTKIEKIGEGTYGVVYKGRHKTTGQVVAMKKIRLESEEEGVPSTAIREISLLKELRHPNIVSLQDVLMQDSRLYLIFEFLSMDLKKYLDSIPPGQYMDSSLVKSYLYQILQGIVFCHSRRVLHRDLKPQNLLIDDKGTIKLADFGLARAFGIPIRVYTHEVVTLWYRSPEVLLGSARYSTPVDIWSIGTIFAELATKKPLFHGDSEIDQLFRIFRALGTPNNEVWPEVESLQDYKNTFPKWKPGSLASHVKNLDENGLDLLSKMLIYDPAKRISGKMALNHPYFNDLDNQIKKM
Sequence of human cyclin B-CDK1 (P14635 whole entry partner, the tested form may be a part): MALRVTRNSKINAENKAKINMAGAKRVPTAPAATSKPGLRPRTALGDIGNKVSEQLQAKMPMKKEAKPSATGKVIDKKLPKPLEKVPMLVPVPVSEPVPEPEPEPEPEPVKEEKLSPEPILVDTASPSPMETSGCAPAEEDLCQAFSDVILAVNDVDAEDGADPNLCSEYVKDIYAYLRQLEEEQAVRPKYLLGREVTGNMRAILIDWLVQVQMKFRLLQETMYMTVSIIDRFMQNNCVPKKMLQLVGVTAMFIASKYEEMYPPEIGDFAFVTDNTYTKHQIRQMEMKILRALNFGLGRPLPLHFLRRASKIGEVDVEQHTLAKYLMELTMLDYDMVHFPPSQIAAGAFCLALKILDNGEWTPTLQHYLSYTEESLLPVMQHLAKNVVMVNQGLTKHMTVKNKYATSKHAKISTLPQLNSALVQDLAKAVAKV
Method in brief: (§1)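 Recombinant human cyclin–CDK complexes, co-expressed in insect cells, phosphorylated His-tagged Rb (aa 386-928) coated on FlashPlates at 10 μg/ml. Reaction used 1 μM ATP plus 4 nM ^33P-ATP and 20 mM MgCl2 for 30 min at room temperature. % inhibition came from scintillation counts against no-enzyme and no-compound wells, and IC50 was the concentration halving radiolabel incorporation.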

human cyclin D1-CDK4 = human cyclin D1-CDK4 (Homo sapiens, UniProt P11802); assay: FlashPlate kinase assay, cyclin D1-CDK4, Rb substrate; assay type: biochemical; details: recombinant cyclin D1-CDK4, Rb phosphorylation, 1 μM ATP
Sequence of human cyclin D1-CDK4 (P11802 whole entry): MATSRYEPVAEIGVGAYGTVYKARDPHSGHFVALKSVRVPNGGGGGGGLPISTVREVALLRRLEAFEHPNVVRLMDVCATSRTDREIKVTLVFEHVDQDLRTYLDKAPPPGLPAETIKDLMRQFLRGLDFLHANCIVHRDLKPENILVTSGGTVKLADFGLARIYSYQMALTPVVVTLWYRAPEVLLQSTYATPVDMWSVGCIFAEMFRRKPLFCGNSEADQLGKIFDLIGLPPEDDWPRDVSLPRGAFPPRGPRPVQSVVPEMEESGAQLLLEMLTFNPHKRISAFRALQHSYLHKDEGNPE
Sequence of human cyclin D1-CDK4 (P24385 whole entry partner): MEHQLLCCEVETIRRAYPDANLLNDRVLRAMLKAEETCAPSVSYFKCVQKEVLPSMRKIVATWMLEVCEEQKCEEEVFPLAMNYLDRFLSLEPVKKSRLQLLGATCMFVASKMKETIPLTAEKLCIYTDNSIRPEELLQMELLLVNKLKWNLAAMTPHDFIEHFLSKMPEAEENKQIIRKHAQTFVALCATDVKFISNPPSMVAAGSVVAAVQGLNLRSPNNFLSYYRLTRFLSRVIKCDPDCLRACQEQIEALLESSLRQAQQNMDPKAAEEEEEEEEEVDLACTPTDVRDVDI
Method in brief: as §1

human cyclin E-CDK2 = human cyclin E-CDK2 (Homo sapiens, UniProt P24941); assay: FlashPlate kinase assay, cyclin E-CDK2, Rb substrate; assay type: biochemical; details: recombinant cyclin E-CDK2, Rb phosphorylation, 1 μM ATP
Method in brief: as §1

IC50 [1] | IC50 (human cyclin B-CDK1) | IC50 (human cyclin D1-CDK4) | IC50 (human cyclin E-CDK2) | Compound
1630 nM | 422 nM | 38 nM | 781 nM | Nc1nc(Nc2ccc(OCCN3CCCC3)cc2)sc1C(=O)c1ccc(O)c(F)c1 [Example 120, [4-Amino-2-[4-(2-pyrrolidin-1-ylethoxy)-phenylamino]-thiazol-5-yl]-(3-fluoro-4-hydroxy-phenyl)-methanone; Compound With Acetic Acid]
1060 nM | 1790 nM | 60 nM | 4910 nM | COc1cccc(C(=O)c2sc(Nc3ccc(OC[C@@H](C)N4CCCC4)cc3)nc2N)c1 [Example 121, [R]-[4-Amino-2-[4-(2-pyrrolidin-1-yl-propoxy)-phenylamino]-thiazol-5-yl]-(3-methoxy-phenyl)-methanone; Compound With Acetic Acid]
1870 nM | 422 nM | 36 nM | 1660 nM | CCN(CC)CCOc1ccc(Nc2nc(N)c(C(=O)c3ccc(O)c(F)c3)s2)cc1 [Example 123, [4-Amino-2-[4-(2-diethylamino-ethoxy)-phenylamino]-thiazol-5-yl]-(3-fluoro-4-hydroxy-phenyl)-methanone]
2220 nM | 2180 nM | 32 nM | 6790 nM | CCN(CC)CCOc1ccc(Nc2nc(N)c(C(=O)c3ccc(OC)c(F)c3)s2)cc1 [Example 125, [4-Amino-2-[4-(2-diethylamino-ethoxy)-phenylamino]-thiazol-5-yl]-(3-fluoro-4-methoxy-phenyl)-methanone]
3970 nM | 1650 nM | 47 nM | 6070 nM | CCN(CC)CCOc1ccc(Nc2nc(N)c(C(=O)c3cccc(SC)c3)s2)cc1 [Example 126, [4-Amino-2-[4-(2-diethylamino-ethoxy)-phenylamino]-thiazol-5-yl]-(3-methylsulfanyl-phenyl)-methanone]
4590 nM | 2050 nM | 65 nM | 1310 nM | Nc1nc(Nc2ccc(OCCN3CCCC3)cc2)sc1C(=O)c1cccc(C(F)(F)F)c1 [Example 128, [4-Amino-2-[4-(2-pyrrolidin-1-yl-ethoxy)-phenylamino]-thiazol-5-yl]-(3-trifluoromethyl-phenyl)-methanone]
1390 nM | 784 nM | 48 nM | 3330 nM | CCNCCOc1ccc(Nc2nc(N)c(C(=O)c3cccc(OC)c3)s2)cc1 [Example 130, [4-Amino-2-[4-(2-ethylamino-ethoxy)-phenylamino]-thiazol-5-yl]-(3-methoxy-phenyl)-methanone]
693 nM | 298 nM | 520 nM | 892 nM | CCNCCOc1ccc(Nc2nc(N)c(C(=O)c3cccc(F)c3)s2)cc1 [Example 131, [4-Amino-2-[4-(2-ethylamino-ethoxy)-phenylamino]-thiazol-5-yl]-(3-fluoro-phenyl)-methanone]

Second part, the compound before the results:

Compound | IC50 [1] | IC50 (human cyclin B-CDK1) | IC50 (human cyclin D1-CDK4) | IC50 (human cyclin E-CDK2)
CCNCCOc1ccc(Nc2nc(N)c(C(=O)c3ccc(F)c(CC)c3)s2)cc1 [Example 104, [4-Amino-2-[4-(2-ethylamino-ethoxy)-phenylamino]-thiazol-5-yl]-(3-ethyl-4-fluoro-phenyl)-methanone; Compound With Acetic Acid] | 2450 nM | 3510 nM | 52 nM | 3310 nM
CCCc1cc(C(=O)c2sc(Nc3ccc(OCCNCC)cc3)nc2N)ccc1O [Example 105, [4-Amino-2-[4-(2-ethylamino-ethoxy)-phenylamino]-thiazol-5-yl]-(4-hydroxy-3-propyl-phenyl)-methanone; Compound With Acetic Acid] | 390 nM | 112 nM | 18 nM | 176 nM
CCCc1cc(C(=O)c2sc(Nc3ccc(OC[C@@H](C)N(C)C)cc3)nc2N)ccc1O [Example 107, (R)-[4-Amino-2-[4-(2-dimethylamino-propoxy)-phenylamino]-thiazol-5-yl]-(4-hydroxy-3-propyl-phenyl)-methanone; Compound With Acetic Acid] | 491 nM | 240 nM | 26 nM | 213 nM
CCCc1cc(C(=O)c2sc(Nc3ccc(OCC(C)(C)N(C)C)cc3)nc2N)ccc1O [Example 108, [4-Amino-2-[4-(2-dimethylamino-2-methyl-propoxy)-phenylamino]-thiazol-5-yl]-(4-hydroxy-3-propyl-phenyl)-methanone; Compound With Acetic Acid] | 518 nM | 291 nM | 26 nM | 295 nM
CCCc1cc(C(=O)c2sc(Nc3ccc(OCCN4CCCC4)cc3)nc2N)ccc1O [Example 109, [4-Amino-2-[4-(2-pyrrolidin-1-yl-ethoxy)-phenylamino]-thiazol-5-yl]-(4-hydroxy-3-propyl-phenyl)-methanone; Compound With Acetic Acid] | 229 nM | 151 nM | 14 nM | 207 nM
CCCc1cc(C(=O)c2sc(Nc3ccc(OC[C@@H](C)N4CCCC4)cc3)nc2N)ccc1O [Example 110, (R)-[4-Amino-2-[4-(2-pyrrolidin-1-yl-propoxy)-phenylamino]-thiazol-5-yl]-(4-hydroxy-3-propyl-phenyl)-methanone; Compound With Acetic Acid] | 291 nM | 177 nM | 23 nM | 182 nM
CCc1cccc(C(=O)c2sc(Nc3ccc(OC[C@@H]4CCCN4C)cc3)nc2N)c1 [Example 112, (S)-[4-Amino-2-[4-(1-methyl-pyrrolidin-2-ylmethoxy)-phenylamino]-thiazol-5-yl]-(3-ethyl-phenyl)-methanone] | 419 nM | 1890 nM | 42 nM | 2320 nM
CN1CCC[C@H]1COc1ccc(Nc2nc(N)c(C(=O)c3cccc(C4CC4)c3)s2)cc1 [Example 113, (S)-[4-Amino-2-[4-(1-methyl-pyrrolidin-2-ylmethoxy)-phenylamino]-thiazol-5-yl]-(3-cyclopropyl-phenyl)-methanone] | 1070 nM | 3900 nM | 62 nM | 3340 nM
Cc1ccc(C(=O)c2sc(Nc3ccc(OC[C@@H]4CCCN4C)cc3)nc2N)cc1F [Example 114, (S)-[4-Amino-2-[4-(1-methyl-pyrrolidin-2-ylmethoxy)-phenylamino]-thiazol-5-yl]-(3-fluoro-4-methyl-phenyl)-methanone] | 2070 nM | 850 nM | 63 nM | 5030 nM
CCCc1cc(C(=O)c2sc(Nc3ccc(OC[C@@H]4CCCN4C)cc3)nc2N)ccc1O [Example 115, (S)-[4-Amino-2-[4-(1-methyl-pyrrolidin-2-ylmethoxy)-phenylamino]-thiazol-5-yl]-(4-hydroxy-3-propyl-phenyl)-methanone Acetate] | 169 nM | 357 nM | 27 nM | 267 nM
Nc1nc(Nc2ccc(OCCN3CCCC3)cc2)sc1C(=O)c1cccc(F)c1 [Example 118, [4-Amino-2-[4-(2-pyrrolidin-1-yl-ethoxy)-phenylamino]-thiazol-5-yl]-(3-fluoro-phenyl)-methanone; Compound With Acetic Acid] | 517 nM | 248 nM | 62 nM | 889 nM
